Source: US8916570B2 (The United States of America, as represented by the …, priority 2008, dated 2014)

Experiments:
[1] = target: human A2A adenosine receptor (Homo sapiens, UniProt P29274); assay: Radioligand binding, human A2A AR (Table 1); details: for inhibition at 10 µM: read-out: A2A % inhib.
[2] = target: T1, human A1 adenosine receptor (Homo sapiens, UniProt P30542); assay: Radioligand binding, human A1 AR, CHO membranes (Table 1); details: for A1 % inhib.: species H (human), percent in parentheses, concentration not marked
T1 sequence (P30542 1-326): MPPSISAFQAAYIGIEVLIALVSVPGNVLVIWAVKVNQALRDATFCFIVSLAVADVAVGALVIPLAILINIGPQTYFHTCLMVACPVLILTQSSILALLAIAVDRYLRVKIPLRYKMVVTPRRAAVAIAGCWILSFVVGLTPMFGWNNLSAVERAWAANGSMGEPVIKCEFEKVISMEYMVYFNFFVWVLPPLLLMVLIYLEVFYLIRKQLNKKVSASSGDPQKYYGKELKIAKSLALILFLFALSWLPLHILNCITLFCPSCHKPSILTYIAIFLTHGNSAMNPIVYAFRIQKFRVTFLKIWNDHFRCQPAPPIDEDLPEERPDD

[3] = target: mouse A2A adenosine receptor (Mus musculus, UniProt Q60613); assay: Competition radioligand binding, mouse A2A AR, HEK293 membranes (Table 1); details: for inhibition at 100 µM: read-out: A2A % inhib.
mouse A2A adenosine receptor, sequence (Q60613 whole entry): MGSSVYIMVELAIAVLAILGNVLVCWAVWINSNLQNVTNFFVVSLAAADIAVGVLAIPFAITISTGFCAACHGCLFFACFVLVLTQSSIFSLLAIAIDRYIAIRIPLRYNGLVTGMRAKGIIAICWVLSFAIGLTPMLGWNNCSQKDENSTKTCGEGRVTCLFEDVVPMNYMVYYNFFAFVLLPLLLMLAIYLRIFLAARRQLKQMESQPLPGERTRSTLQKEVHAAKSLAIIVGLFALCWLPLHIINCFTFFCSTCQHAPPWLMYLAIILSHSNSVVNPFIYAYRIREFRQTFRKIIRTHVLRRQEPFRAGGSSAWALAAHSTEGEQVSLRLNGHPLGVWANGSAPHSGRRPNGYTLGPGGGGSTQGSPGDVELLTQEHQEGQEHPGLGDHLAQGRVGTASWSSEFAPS

[4] = target: T2, human A3 adenosine receptor (Homo sapiens, UniProt P0DMS8); assay: [125I]I-AB-MECA binding, human A3 AR, CHO membranes (Table 1); details: for Ki: A3 Ki, species H (human); for Selectivity A1/A3: human
T2 sequence (P0DMS8 1-318): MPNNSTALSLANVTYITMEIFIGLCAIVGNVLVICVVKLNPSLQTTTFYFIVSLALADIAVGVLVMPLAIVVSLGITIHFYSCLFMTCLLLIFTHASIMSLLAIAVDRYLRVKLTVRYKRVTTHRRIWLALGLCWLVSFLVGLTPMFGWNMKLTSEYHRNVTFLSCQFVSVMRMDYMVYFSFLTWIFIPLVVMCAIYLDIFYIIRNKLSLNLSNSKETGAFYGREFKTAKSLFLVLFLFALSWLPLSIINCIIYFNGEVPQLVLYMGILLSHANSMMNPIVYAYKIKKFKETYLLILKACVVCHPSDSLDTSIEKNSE

[5] = target: T3, mouse A3 adenosine receptor (Mus musculus, UniProt Q61618); assay: Competition radioligand binding, mouse A3 AR, HEK293 membranes (Table 1); details: for Ki: A3 Ki, species M (mouse), [125I]I-AB-MECA; for Selectivity A1/A3: mouse
T3 sequence (Q61618 1-319): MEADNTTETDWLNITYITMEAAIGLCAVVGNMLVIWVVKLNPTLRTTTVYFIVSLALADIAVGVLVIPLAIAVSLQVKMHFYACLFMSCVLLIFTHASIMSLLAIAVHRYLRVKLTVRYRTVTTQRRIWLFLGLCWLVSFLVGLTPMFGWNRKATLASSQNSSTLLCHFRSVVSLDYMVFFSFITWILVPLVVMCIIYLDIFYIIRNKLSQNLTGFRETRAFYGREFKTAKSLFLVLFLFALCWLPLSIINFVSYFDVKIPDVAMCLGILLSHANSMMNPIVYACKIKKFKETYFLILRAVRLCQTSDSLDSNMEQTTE

[6] = target: T4, mouse A1 adenosine receptor (Mus musculus, UniProt Q60612); assay: Competition radioligand binding, mouse A1 AR, HEK293 membranes (Table 1)
T4 sequence (Q60612 1-326): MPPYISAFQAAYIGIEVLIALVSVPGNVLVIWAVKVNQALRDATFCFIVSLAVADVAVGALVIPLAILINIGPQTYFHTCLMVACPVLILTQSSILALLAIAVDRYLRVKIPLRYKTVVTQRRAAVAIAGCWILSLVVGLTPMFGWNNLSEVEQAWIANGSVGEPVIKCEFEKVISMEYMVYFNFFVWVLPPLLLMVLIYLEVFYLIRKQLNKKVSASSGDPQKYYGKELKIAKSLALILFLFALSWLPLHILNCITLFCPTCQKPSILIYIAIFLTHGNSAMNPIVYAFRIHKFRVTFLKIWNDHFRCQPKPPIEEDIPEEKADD

human A3AR = target: T5, human A3AR (Homo sapiens, UniProt P0DMS8); assay: Inhibition of forskolin-stimulated cyclic AMP production in AR transfected CHO cells (Table 1); type: cell-based; details: CHO; read-out: % Efficacy at the human A3 AR
T5 construct: expressed in transfected cells; host or cells: CHO
T5 sequence (P0DMS8 1-318): T2 sequence (P0DMS8 1-318)

human A2A adenosine receptor, sequence (P29274 whole entry): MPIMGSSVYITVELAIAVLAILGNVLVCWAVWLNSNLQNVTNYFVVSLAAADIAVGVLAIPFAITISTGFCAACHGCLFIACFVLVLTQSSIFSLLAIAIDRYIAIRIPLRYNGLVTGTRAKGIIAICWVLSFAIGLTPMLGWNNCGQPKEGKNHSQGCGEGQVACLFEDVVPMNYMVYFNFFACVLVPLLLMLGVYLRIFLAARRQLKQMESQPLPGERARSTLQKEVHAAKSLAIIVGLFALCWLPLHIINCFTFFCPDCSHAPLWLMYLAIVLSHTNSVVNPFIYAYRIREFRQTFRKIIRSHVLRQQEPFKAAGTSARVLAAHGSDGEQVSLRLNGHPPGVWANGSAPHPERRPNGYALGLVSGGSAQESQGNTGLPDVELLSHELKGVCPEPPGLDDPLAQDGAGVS

Compound	inhibition at 10 µM [1] [%]	inhibition at 100 µM [3] [%]	Ki [4] [µM]	Ki [1] [µM]	A1 % inhib. [2]	Ki [2] [µM]	Ki [5] [µM]	Selectivity A1/A3 [5]	Ki [6] [µM]	other results
CNC(=O)C12CC1C(n1cnc3c(NCc4cccc(Cl)c4)nc(I)nc31)C(O)C2O (stereo not drawn) [Compound 1]	–	40	–	> 10	–	–	–	–	–	–
CNC(=O)C12CC1C(n1cnc3c(NCc4cccc(Cl)c4)nc(C#C[Si](C)(C)C)nc31)C(O)C2O (stereo not drawn) [Compound 4, (1′S,2′R,3′S,4′S,5′S)-4′-[6-(3-Chlorobenzylamino)-2-trimethylsilylethynyl-9-yl]-2′,3′-dihydroxybicyclo[3.1.0]hexane-1′-carboxylic acid N-methylamide]	52	20	0.00098 ± 0.00014	–	–	0.16 ± 0.04	0.00446 ± 0.00057	35.6	0.159 ± 0.022	Selectivity A1/A3 [4]: 160
CNC(=O)C12CC1C(n1cnc3c(NCc4cccc(C#CCCCC(=O)O)c4)nc(Cl)nc31)C(O)C2O (stereo not drawn) [Compound 9]	14	5	–	–	–	–	–	–	–	–
CNC(=O)C12CC1C(n1cnc3c(NCc4cccc(C#CCCCC(=O)NCCNC(C)=O)c4)nc(Cl)nc31)C(O)C2O (stereo not drawn) [Compound 11]	80	68	–	–	–	–	–	–	–	–
CNC(=O)C12CC1C(n1cnc3c(NCc4cc(OC)ccc4OC)nc(I)nc31)C(O)C2O (stereo not drawn) [Compound 2, (1′S,2′R,3′S,4′S,5′S)-4′-[6-(2,5-Dimethoxybenzylamino)-2-iodopurin-9-yl]-2′,3′-dihydroxybicyclo[3.1.0]hexane-1′-carboxylic acid N-methylamide]	35	14	–	–	–	–	–	–	–	–
CCN1C(=CC=CC=CC2=[N+](CCCCCC(=O)NCCNC(=O)CCC#Cc3nc(NCc4cccc(Cl)c4)c4ncn(C5C(O)C(O)C6(C(=O)NC)CC56)c4n3)c3ccc(S(=O)(=O)[O-])cc3C2(C)C)C(C)(C)c2cc(S(=O)(=O)O)ccc21 (stereo not drawn) [Compound 44, (1′S,2′R,3′S,4′S,5′S)-4′-[6-(3-Chlorobenzylamino)-2-(N-Cyanine(β-aminoethylaminocarbonyl)-1-butynyl)-9-yl]-2′,3′-dihydroxybicyclo[3.1.0]hexane-1′-carboxylic acid N-methylamide]	–	–	–	–	(10 ± 4%)	–	–	–	–	–
CNC(=O)C12CC1C(n1cnc3c(NCc4cccc(Cl)c4)nc(C#CCCCC(=O)O)nc31)C(O)C2O (stereo not drawn) [Compound 7, (1′S,2′R,3′S,4′S,5′S)-4′-[6-(3-chlorobenzylamino)-2-(5-hydroxycarbonyl-1-pentynyl)-9-yl]-2′,3′-dihydroxybicyclo[3.1.0]hexane-1′-carboxylic acid N-methylamide]	43	8	–	–	–	–	–	–	–	–
CNC(=O)C12CC1C(n1cnc3c(NCc4cccc(Cl)c4)nc(C#CCCCC(=O)NCCN)nc31)C(O)C2O (stereo not drawn) [Compound 8]	81	31	0.00217 ± 0.00051	–	–	0.454 ± 0.044	0.0086 ± 0.00102	64	0.546 ± 0.062	Selectivity A1/A3 [4]: 209
CNC(=O)C12CC1C(n1cnc3c(NCc4cccc(Cl)c4)nc(C#CCCCC(=O)OC)nc31)C(O)C2O (stereo not drawn) [Compound 6, (1′S,2′R,3′S,4′S,5′S)-4′-[6-(3-Chlorobenzylamino)-2-(5-methoxycarbonyl-1-pentynyl)-9-yl]-2′,3′-dihydroxybicyclo[3.1.0]hexane-1′-carboxylic acid N-methylamide]	49	50	–	–	–	0.482 ± 0.023	0.00465 ± 0.00053	–	1.34 ± 0.33	–
CNC(=O)C12CC1C(n1cnc3c(NCc4cccc(Cl)c4)nc(C#CCCC(=O)NCCN)nc31)C(O)C2O (stereo not drawn) [Compound 37, (1′S, 2′R, 3′S, 4′S, 5′S)-4′-[6-(3-Chlorobenzylamino) 2-(4-(β-aminoethylaminocarbonyl)-1-butynyl)-9-yl]-2′,3′-dihydroxybicyclo[3.1.0]hexane-1′-carboxylic acid N-methylamide]	–	–	0.0025 ± 0.0005	0.55 ± 0.083	(25 ± 12%)	–	–	–	–	Selectivity A1/A3 [4]: up to 1900
CNC(=O)C12CC1C(n1cnc3c(NCC(c4ccccc4)c4ccccc4)nc(Cl)nc31)C(O)C2O (stereo not drawn) [Compound 18]	–	–	–	–	–	–	0.00167 ± 9e-05	4.1	0.00683 ± 0.0015	Ki [3]: 1.81 ± 0.581 µM
CNC(=O)C12CC1C(n1cnc3c(NCc4cccc(C#CCCCC(=O)NCCN)c4)nc(Cl)nc31)C(O)C2O (stereo not drawn) [Compound 10]	58	39	0.00521	–	–	0.271 ± 0.023	0.0119 ± 0.0024	13	0.151 ± 0.018	Selectivity A1/A3 [4]: 52
CNC(=O)C12CC1C(n1cnc3c(NCc4cccc(Cl)c4)nc(SC)nc31)C(O)C2O (stereo not drawn) [Compound 20]	–	32	0.0015	10	–	0.61	0.00119 ± 9e-05	83	0.0989 ± 0.0188	–

Further lines, with some results ahead:

inhibition at 10 µM [1] [%]	inhibition at 100 µM [3] [%]	Ki [4] [µM]	Ki [1] [µM]	A1 % inhib. [2]	Compound	Ki [2] [µM]	Ki [5] [µM]	Selectivity A1/A3 [5]	Ki [6] [µM]	other results
2	2	0.149 ± 0.015	–	–	CNC(=O)C12CC1C(n1cnc3c(NOC)nc(Cl)nc31)C(O)C2O (stereo not drawn) [Compound 21, (1′S,2′R,3′S,4′S,5′S)-4′-[6-Methoxyamino-2-chloropurin-9-yl]-2′,3′-dihydroxybicyclo[3.1.0]hexane-1′-carboxylic acid N-methylamide]	0.265 ± 0.045	0.877 ± 0.149	1.3	1.16 ± 0.13	Selectivity A1/A3 [4]: 1.8
–	–	0.0031 ± 0.0004	0.979 ± 0.181	(16 ± 4%)	CNC(=O)C12CC1C(n1cnc3c(NCc4cccc(Cl)c4)nc(C#CCCC(=O)NCCCN)nc31)C(O)C2O (stereo not drawn) [Compound 39, (1′S, 2′R, 3′S, 4′S, 5′S)-4′-[6-(3-Chlorobenzylamino)-2-(4-(β-aminopropylaminocarbonyl)-1-butynyl)-9-yl]-2′,3′-dihydroxybicyclo[3.1.0]hexane-1′-carboxylic acid N-methylamide]	–	–	–	–	–
–	–	0.0611 ± 0.0358	–	–	CNC(=O)C12CC1C(n1cnc3c(NCc4cccc(Cl)c4)nc(C#CCCC(=O)O)nc31)C(O)C2O (stereo not drawn) [Compound 33]	–	–	–	–	Emax at 10 µM (human A3AR): 106 ± 17.7%
–	–	0.0124 ± 0.0018	–	(5 ± 3%)	CNC(=O)C12CC1C(n1cnc3c(NCc4cccc(Cl)c4)nc(C#CCCCCC(=O)O)nc31)C(O)C2O (stereo not drawn) [Compound 34]	–	–	–	–	–
–	–	0.0034 ± 0.0007	0.277 ± 0.033	(21 ± 6%)	CNC(=O)C12CC1C(n1cnc3c(NCc4cccc(Cl)c4)nc(C#CCCCCC(=O)NCCN)nc31)C(O)C2O (stereo not drawn) [Compound 38, (1′S,2′R,3′S,4′S,5′S)-4′-[6-(3-Chlorobenzylamino)-2-(6-(β-aminoethylaminocarbonyl)-1-hexynyl)-9-yl]-2′,3′-dihydroxybicyclo[3.1.0]hexane-1′-carboxylic acid N-methylamide]	–	–	–	–	–
–	–	0.0364 ± 0.0056	–	(13 ± 6%)	CNC(=O)C12CC1C(n1cnc3c(NCc4cccc(Cl)c4)nc(C#CCCC(=O)NCCNC(=O)CCCCC4SCC5NC(=O)NC54)nc31)C(O)C2O (stereo not drawn) [Compound 42, (1′S,2′R,3′S,4′S,5′S)-4′-[6-(3-Chlorobenzylamino)-2-(N-biotinyl(β-aminoethylaminocarbonyl)-1-butynyl)-9-yl]-2′,3′-dihydroxybicyclo[3.1.0]hexane-1′-carboxylic acid N-methylamide]	–	–	–	–	–
–	–	0.0154 ± 0.0044	0.89 ± 0.11	(14 ± 8%)	CNC(=O)C12CC1C(n1cnc3c(NCc4cccc(Cl)c4)nc(C#CCCC(=O)NCCNCCN)nc31)C(O)C2O (stereo not drawn) [Compound 41]	–	–	–	–	–
